Data reported in patent publication US20060240098A1, “Formulations for hyperforin-enriched hypericum fractions” (Aphios Corporation, priority 2004, published 2006).
Where a name gives a salt, the structure may show the parent alone.

Biological target: serotonin reuptake (Rattus norvegicus, UniProt P31652)
Test: in vitro serotonin reuptake inhibition assay (Paracelsian)
Format: biochemical
Protocol: The bioassay was performed in quadruplicate by Paracelsian, Inc., Ithaca, N.Y. and were all in compliance with our standard operating protocols, having a standard deviation less than ±5%.

Sequence of serotonin reuptake (P31652 whole entry): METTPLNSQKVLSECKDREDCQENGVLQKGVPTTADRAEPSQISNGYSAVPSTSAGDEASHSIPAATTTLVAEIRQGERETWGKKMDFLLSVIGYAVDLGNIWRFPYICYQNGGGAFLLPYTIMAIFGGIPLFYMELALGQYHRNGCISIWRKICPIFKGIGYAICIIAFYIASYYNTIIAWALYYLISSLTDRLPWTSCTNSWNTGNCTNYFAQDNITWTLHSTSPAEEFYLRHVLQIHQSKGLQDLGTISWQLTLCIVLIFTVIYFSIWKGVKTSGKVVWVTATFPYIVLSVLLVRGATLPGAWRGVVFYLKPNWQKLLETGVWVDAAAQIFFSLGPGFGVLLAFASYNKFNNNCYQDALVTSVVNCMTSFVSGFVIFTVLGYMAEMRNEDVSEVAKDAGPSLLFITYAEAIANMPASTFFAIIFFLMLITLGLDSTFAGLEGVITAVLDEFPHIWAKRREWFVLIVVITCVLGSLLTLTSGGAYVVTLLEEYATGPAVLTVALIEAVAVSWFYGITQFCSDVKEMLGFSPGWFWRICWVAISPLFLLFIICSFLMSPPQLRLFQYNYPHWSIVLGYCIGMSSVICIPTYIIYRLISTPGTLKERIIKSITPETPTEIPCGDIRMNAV

Row | Compound | Serotonin Reuptake Inhibition (%) (sample weight 2 μg) | Serotonin Reuptake Inhibition (%) (sample weight 65 ng)
1 | hyperforin [Hyperforin (Aphios)] | 80.3 | –
2 | Cc1cc(O)c2c(=O)c3c(O)cc(O)c4c5c(O)cc(O)c6c(=O)c7c(O)cc(C)c8c1c2c(c34)c(c78)c65 [Hypericin (Sigma), hypericin] | 0.0 | –
3 | CN(C)CCCN1c2ccccc2CCc2ccccc21 [Imipramine (Sigma), imipramine hydrochloride] | – | 38.3
